Assays:
GST-hMDM2 (aa1-188) = biological target: T1, GST-hMDM2 (aa1-188) (Homo sapiens, UniProt Q00987); assay: Homogeneous time resolved fluorometry (HTRF assay), hMDM2/p53 interaction; assay type: binding; conditions: HTRF analysis; GST-hMDM2 (aa1-188) / biotinylated-p53 (aa1-83)
T1 construct: The amino acid residues 1-188 of human MDM2 were expressed as GST-hMDM2 fusion protein; made in house; host or cells: E. coli
Description: Residues 1-83 of human p53 were expressed as avitag <TM>-trxa-6×his fusion protein (biotinlabelled p53) in E. coli. Each protein was separated from cell homogenate by affinity chromatography.
Specifically, 10 μL GST-hMDM2 was incubated with 10 uL diluted compound in 10% DMSO for 20 minutes at room temperature. 20 μL biotinlabelled-p53 was added to the mixture of GST-hMDM2 and then incubated at room temperature for 60 min. A 10 μL detection buffer consisting of SA-XLent, anti-GST cavernous compound antibody and KF was added to the reaction solution consisting of GST-hMDM2, biotinlabelled-p53 and the compound and was placed at room temperature to achieve equilibrium and maintained for more than 4 h. The final concentration of DMSO in the reaction solution was 2%. Time resolved fluorescence were measured on a microplate multi label reader. The inhibition percentage was calculated relative to nutlin-3.

[1] = system: p21 transcripts in SJSA-1 cells; assay: p21 assay (QRT-PCR of p21 transcripts in SJSA-1 cells); assay type: cell-based, human; conditions: cell assay (SJSA-1 cell), p21 induction, 7 hours incubation
Description: Inhibition of the interaction between hMDM2 and p53 results in the activation of the p53 pathway via the stabilization and accumulation of p53. P53 activates the transcription of many genes, one of which is p21<WAFT/CIP1>. To evaluate the potency of hMDM2 inhibitors, quantitative reverse transcription polymerase chain reaction (QRT PCR) was used to measure the level of p21 transcripts of compound related cells relative to that of control cells treated with dimethyl sulfoxide (DMSO).
In the first day, SJSA-1 cells were inoculated into 100 μL growth medium (RPMI1640; 10 mM HEPES; 1 mM sodium pyruvate; 1× penicillin streptomycin glutamine (PSQ) and 10% FBS, all reagents were obtained from Invitrogen) at a density of 3×10^4 cells in 96-well cell culture plate. The cells were cultured overnight at 37° C. and 5% CO2 atmosphere.
In the second day, hMDM2 inhibitor was gradient diluted in DMSO(Sigma-Aldrich; St. Louis, Mo.). 5 μl of each compound dilution were added into 245 μl filtered assay medium (RPMI1640, 10% FBS, 10 mM HEPES, 1 mM sodium pyruvate and 1×PSQ). Or the assay was conducted with the presence of 10% human serum or 10% mouse serum, or without serum. Growth medium was removed from inoculated SJSA-1 cell culture plate and replaced by 100 μL assay medium for each well. Then 100 μL culture medium containing diluted inhibitor was added into each well to a final volume 200 μL. The final concentration of the compound was in the range of 0.049 μm-50 μm by dose titration with DMSO as control. The cells were incubated at 37° C. and 5% CO2 for 7 hours with the presence of inhibitor. When incubation was completed, growth medium was removed from cells and the plate was stored at −80° C.
In the third day, giagen BioRobot Universal workstation was used to purify total RNA from SJSA-1 cells treated with inhibitor and DMSO respectively. The purification procedure herein was according to RNeasy96BioRobot8000 test kit provided by Qiagen, Valencia, Calif.
To measure the level of existing p21 transcripts, QRT-PCR was introduced. The levels of p21, housekeeping genes and glyceraldehyde 3-phosphate dehydrogenase (GAPDH) were determined by the total RNA from each inhibitor- or DMSO-treated well by duplicated test. The QRT-PCR reaction was performed on the Applied Biosystems prism 7900ht instrument using the relative quantitative (ΔΔ Ct) method according to the following cycle conditions: 48° C. for 30 minutes, then 95° C. for 10 minutes, and then was 40 cycles consisting of 95° C. for 15 seconds and 60° C. for 1 minute. The data were analyzed by using Applied Biosystems SDS2.2 software, with GAPDH as inner control and DMSO treated samples as calibrators. SDS2.2 software calculated the relative quantification (RQ) or increased fold of p21 level relative to DMSO control for each treated sample. The maximum (100%) p21 induction fold was defined by the maximum value of the fitting curve of the reference compound. The p21 induction fold of each inhibitor dose tested was converted to a value representing the percentage of the maximum value. XLFit software (ID business solutions, Alameda, Calif.) was used to make dose-response curve to calculate the IC50 transit value of each inhibitor tested.

T1 sequence (Q00987 1-188): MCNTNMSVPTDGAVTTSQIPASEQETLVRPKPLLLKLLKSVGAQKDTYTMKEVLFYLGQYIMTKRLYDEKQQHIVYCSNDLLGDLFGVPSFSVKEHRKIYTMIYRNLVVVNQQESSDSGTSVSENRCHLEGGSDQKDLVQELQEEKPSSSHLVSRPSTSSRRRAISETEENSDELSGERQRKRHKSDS

SMILES	IC50 (GST-hMDM2 (aa1-188))	IC50 ([1]; Homo sapiens, SJSA-1, 7 h)	IC50 [1]
COc1cc(NC(=O)C[C@@]2(C)C[C@H](c3cccc(Cl)c3)[C@@H](c3ccc(Cl)cc3)N([C@H](CS(=N)(=O)C(C)C)C(C)C)C2=O)ccc1C(=O)O (stereo partly drawn) [Compound 008]	< 10 nM	< 1000 nM	
Cc1ccc(S(=N)(=O)NC(=O)C[C@@]2(C)C[C@H](c3cccc(Cl)c3)[C@@H](c3ccc(Cl)cc3)N([C@H](CS(=O)(=O)C(C)C)C(C)C)C2=O)cc1 (stereo partly drawn) [Compound 029]	> 100 nM	1000 to 10000 nM	
C=CC(=O)N=[S@@](=O)(C[C@H](C(C)C)N1C(=O)[C@@](C)(CC(=O)O)C[C@H](c2cccc(Cl)c2)[C@H]1c1ccc(Cl)cc1)C(C)C [Compound 041]	10 to 100 nM	< 1000 nM	
COc1cc(NC(=O)C[C@@]2(C)C[C@H](c3cccc(Cl)c3)[C@@H](c3ccc(Cl)cc3)N([C@H](CS(=O)(=NC(=O)N3CCCC3)C(C)C)C(C)C)C2=O)ccc1C(=O)O (stereo partly drawn) [Compound 051]	< 10 nM	< 1000 nM	
CCOC(=O)N=S(=O)(C[C@H](C(C)C)N1C(=O)[C@@](C)(CC(=O)Nc2ccc(C(=O)O)c(OC)c2)C[C@H](c2cccc(Cl)c2)[C@H]1c1ccc(Cl)cc1)C(C)C (stereo partly drawn) [Compound 052]	< 10 nM	< 1000 nM	
CC(C)[C@@H](CS(=N)(=O)C(C)C)N1C(=O)[C@@](C)(CC(=O)Nc2cccc(C(F)(F)F)c2)C[C@H](c2cccc(Cl)c2)[C@H]1c1ccc(Cl)cc1 (stereo partly drawn) [Compound 016]	> 100 nM	1000 to 10000 nM	
CC(C)[C@@H](CS(=N)(=O)C(C)C)N1C(=O)[C@@](C)(CC(=O)Nc2ccc(F)c(Br)c2)C[C@H](c2cccc(Cl)c2)[C@H]1c1ccc(Cl)cc1 (stereo partly drawn) [Compound 017]	> 100 nM	1000 to 10000 nM	
CC(C)[C@@H](CS(=O)(=O)C(C)C)N1C(=O)[C@@](C)(CC(=O)NS(=N)(=O)C2(C)CC2)C[C@H](c2cccc(Cl)c2)[C@H]1c1ccc(Cl)cc1 (stereo partly drawn) [Compound 028A]	10 to 100 nM	< 1000 nM	
COc1cc(NC(=O)C[C@@]2(C)C[C@H](c3cccc(Cl)c3)[C@@H](c3ccc(Cl)cc3)N([C@H](CS(=O)(=NC(N)=O)C(C)C)C(C)C)C2=O)ccc1C(=O)O (stereo partly drawn) [Compound 043]	< 10 nM	< 1000 nM	
CC(C)[C@@H](CS(=O)(=NC(=O)N1CCCC1)C(C)C)N1C(=O)[C@@](C)(CC(=O)O)C[C@H](c2cccc(Cl)c2)[C@H]1c1ccc(Cl)cc1 (stereo partly drawn) [Compound 047]	< 10 nM	< 1000 nM	
CC(C)[C@@H](CS(=N)(=O)C(C)C)N1C(=O)[C@@](C)(CC(=O)NS(=O)(=O)c2ccccc2)C[C@H](c2cccc(Cl)c2)[C@H]1c1ccc(Cl)cc1 (stereo partly drawn) [Compound 020]	10 to 100 nM	1000 to 10000 nM	
CC(C)[C@@H](CS(=N)(=O)C(C)C)N1C(=O)[C@@](C)(CC(=O)NS(=O)(=O)c2ccc(F)cc2)C[C@H](c2cccc(Cl)c2)[C@H]1c1ccc(Cl)cc1 (stereo partly drawn) [Compound 022]	10 to 100 nM	1000 to 10000 nM	
CC(C)[C@@H](CS(=O)(=NC(=O)N1CCOCC1)C(C)C)N1C(=O)[C@@](C)(CC(=O)O)C[C@H](c2cccc(Cl)c2)[C@H]1c1ccc(Cl)cc1 (stereo partly drawn) [Compound 046]	< 10 nM	< 1000 nM	
CC(C)[C@@H](CS(=O)(=NC#N)C(C)C)N1C(=O)[C@@](C)(CC(=O)O)C[C@H](c2cccc(Cl)c2)[C@H]1c1ccc(Cl)cc1 (single isomer, unassigned) [Compound 006]	< 10 nM	< 1000 nM	
COc1cc(NC(=O)C[C@@]2(C)C[C@H](c3cccc(Cl)c3)[C@@H](c3ccc(Cl)cc3)N([C@H](CS(=O)(=NC(=O)N(C)C)C(C)C)C(C)C)C2=O)ccc1C(=O)O (stereo partly drawn) [Compound 049]	< 10 nM	< 1000 nM	
CN=S(=O)(C[C@H](C(C)C)N1C(=O)[C@@](C)(CC(=O)O)C[C@H](c2cccc(Cl)c2)[C@H]1c1ccc(Cl)cc1)C(C)C (stereo partly drawn) [Compound 003, 2-((3R,5R,6S)-5-(3-chlorophenyl)-6-(4-chlorophenyl)-3-methyl-1-((2S)-3-methyl-1-(N-methyl-2-propylsulfonamido)butyl-2-)-2-oxo-piperidine-3-yl)acetic acid]	< 10 nM	< 1000 nM	
CC(C)[C@@H](CS(=O)(=O)C(C)C)N1C(=O)[C@@](C)(CC(=O)NS(=N)(=O)C2(C)CC2)C[C@H](c2cccc(Cl)c2)[C@H]1c1ccc(Cl)cc1 (stereo partly drawn) [Compound 028B]	10 to 100 nM		1000 to 10000 nM
COc1ccc(S(=O)(=O)NC(=O)C[C@@]2(C)C[C@H](c3cccc(Cl)c3)[C@@H](c3ccc(Cl)cc3)N([C@H](CS(=N)(=O)C(C)C)C(C)C)C2=O)cc1 (stereo partly drawn) [Compound 023]	10 to 100 nM	< 1000 nM	
CCOC(=O)N=S(=O)(C[C@H](C(C)C)N1C(=O)[C@@](C)(CC(=O)O)C[C@H](c2cccc(Cl)c2)[C@H]1c1ccc(Cl)cc1)C(C)C (stereo partly drawn) [Compound 048]	< 10 nM	< 1000 nM	
Cc1c(Br)cccc1NC(=O)C[C@@]1(C)C[C@H](c2cccc(Cl)c2)[C@@H](c2ccc(Cl)cc2)N([C@H](CS(=N)(=O)C(C)C)C(C)C)C1=O (stereo partly drawn) [Compound 013]	> 100 nM	1000 to 10000 nM	
CC(=O)N=[S@@](=O)(C[C@H](C(C)C)N1C(=O)[C@@](C)(CC(=O)O)C[C@H](c2cccc(Cl)c2)[C@H]1c1ccc(Cl)cc1)C(C)C [Compound 039]	< 10 nM	< 1000 nM	
CC(C)[C@@H](CS(=N)(=O)C(C)C)N1C(=O)[C@@](C)(CC(=O)NS(=O)(=O)c2ccc(C#N)cc2)C[C@H](c2cccc(Cl)c2)[C@H]1c1ccc(Cl)cc1 (stereo partly drawn) [Compound 024]	10 to 100 nM	1000 to 10000 nM	
CC(C)[C@@H](CS(=N)(=O)C(C)C)N1C(=O)[C@@](C)(CC(=O)Nc2ccc(C(=O)O)cc2)C[C@H](c2cccc(Cl)c2)[C@H]1c1ccc(Cl)cc1 (stereo partly drawn) [Compound 007]	< 10 nM	1000 to 10000 nM	
CC(C)[C@@H](CS(=N)(=O)C(C)C)N1C(=O)[C@@](C)(CC(=O)NS(=O)(=O)C2(C)CC2)C[C@H](c2cccc(Cl)c2)[C@H]1c1ccc(Cl)cc1 (stereo partly drawn) [Compound 019]	10 to 100 nM	1000 to 10000 nM	
CC(C)[C@@H](CS(=N)(=O)C(C)C)N1C(=O)[C@@](C)(CC(=O)O)C[C@H](c2cccc(Cl)c2)[C@H]1c1ccc(Cl)cc1 (stereo partly drawn) [Compound 002]	< 10 nM		< 1000 nM
Cc1ccc(S(=O)(=O)NC(=O)C[C@@]2(C)C[C@H](c3cccc(Cl)c3)[C@@H](c3ccc(Cl)cc3)N([C@H](CS(=N)(=O)C(C)C)C(C)C)C2=O)cc1 (stereo partly drawn) [Compound 021]	10 to 100 nM	1000 to 10000 nM	
CC(C)[C@@H](CS(=O)(=O)C(C)C)N1C(=O)[C@@](C)(CC(=O)NS(=N)(=O)C2CC2)C[C@H](c2cccc(Cl)c2)[C@H]1c1ccc(Cl)cc1 (stereo partly drawn) [Compound 025]	10 to 100 nM	1000 to 10000 nM	
COc1cc(C(=O)O)ccc1NC(=O)C[C@@]1(C)C[C@H](c2cccc(Cl)c2)[C@@H](c2ccc(Cl)cc2)N([C@H](C[S@](=O)(=NC(N)=O)C(C)C)C(C)C)C1=O [Compound 054]	< 10 nM	< 1000 nM	
CCN=S(=O)(C[C@H](C(C)C)N1C(=O)[C@@](C)(CC(=O)O)C[C@H](c2cccc(Cl)c2)[C@H]1c1ccc(Cl)cc1)C(C)C (stereo partly drawn) [Compound 035]	< 10 nM	< 1000 nM	
CC(C)[C@@H](CS(=N)(=O)C(C)C)N1C(=O)[C@@](C)(CC(=O)Nc2ccc(F)cc2Br)C[C@H](c2cccc(Cl)c2)[C@H]1c1ccc(Cl)cc1 (stereo partly drawn) [Compound 014]	> 100 nM	1000 to 10000 nM	

Source: patent US11299460B2, “MDM2 inhibitor, preparation method therefor, pharmaceutical composition thereof and use thereof” (SHANGHAI LONGWOOD BIOPHARMACEUTICALS CO., LTD., priority 2018, dated 2022)
